# Results from PubChem BioAssay (NCI).
#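 Dose response: 5 concentrations. Exposure: 48 h. Format: 96-well plates. Endpoint: linear interpolation; highest concentration if not reached. TGI denotes the concentration required for complete inhibition of growth.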
# Key:
# Assay in all cases: NCI tumour cell line growth inhibition, 48 h
# 786-0 renal = tested on: 786-0 renal
# A549 NSCLC = tested on: A549 NSCLC
# ACHN renal = tested on: ACHN renal
# BT-549 breast = tested on: BT-549 breast
# CCRF-CEM leukemia = tested on: CCRF-CEM leukemia
# COLO 205 colon = tested on: COLO 205 colon
# DU-145 prostate = tested on: DU-145 prostate
# EKVX NSCLC = tested on: EKVX NSCLC
# HCC-2998 colon = tested on: HCC-2998 colon
# HCT-116 colon = tested on: HCT-116 colon
# HCT-15 colon = tested on: HCT-15 colon
# HL-60(TB) leukemia = tested on: HL-60(TB) leukemia
# HOP-62 NSCLC = tested on: HOP-62 NSCLC
# HOP-92 NSCLC = tested on: HOP-92 NSCLC
# HS 578T breast = tested on: HS 578T breast
# HT29 colon = tested on: HT29 colon
# IGROV1 ovarian = tested on: IGROV1 ovarian
# K-562 leukemia = tested on: K-562 leukemia
# KM12 colon = tested on: KM12 colon
# LOX IMVI melanoma = tested on: LOX IMVI melanoma
# M14 melanoma = tested on: M14 melanoma
# MALME-3M melanoma = tested on: MALME-3M melanoma
# MCF7 breast = tested on: MCF7 breast
# MDA-MB-231 breast = tested on: MDA-MB-231 breast
# MDA-MB-435 = tested on: MDA-MB-435
# MDA-N = tested on: MDA-N
# MOLT-4 leukemia = tested on: MOLT-4 leukemia
# NCI-H226 lung = tested on: NCI-H226 lung
# NCI-H23 lung = tested on: NCI-H23 lung
# NCI-H460 lung = tested on: NCI-H460 lung
# NCI-H522 lung = tested on: NCI-H522 lung
# NCI/ADR-RES ovarian = tested on: NCI/ADR-RES ovarian
# OVCAR-3 ovarian = tested on: OVCAR-3 ovarian
# OVCAR-4 ovarian = tested on: OVCAR-4 ovarian
# OVCAR-5 ovarian = tested on: OVCAR-5 ovarian
# OVCAR-8 ovarian = tested on: OVCAR-8 ovarian
# PC-3 prostate = tested on: PC-3 prostate
# RPMI-8226 leukemia = tested on: RPMI-8226 leukemia
# SF-268 CNS = tested on: SF-268 CNS
# SF-295 CNS = tested on: SF-295 CNS
# SK-MEL-2 melanoma = tested on: SK-MEL-2 melanoma
# SK-MEL-28 melanoma = tested on: SK-MEL-28 melanoma
# SK-MEL-5 melanoma = tested on: SK-MEL-5 melanoma
# SK-OV-3 ovarian = tested on: SK-OV-3 ovarian
# SN12C renal = tested on: SN12C renal
# SNB-19 CNS = tested on: SNB-19 CNS
# SNB-75 CNS = tested on: SNB-75 CNS
# SW-620 colon = tested on: SW-620 colon
# T-47D breast = tested on: T-47D breast
# TK-10 renal = tested on: TK-10 renal
# U251 CNS = tested on: U251 CNS
# UACC-62 melanoma = tested on: UACC-62 melanoma
# UO-31 renal = tested on: UO-31 renal
# CAKI-1 renal = tested on: CAKI-1 renal
# RXF 393 renal = tested on: RXF 393 renal
# SF-539 CNS = tested on: SF-539 CNS
# UACC-257 melanoma = tested on: UACC-257 melanoma
smiles,measurement,setting,value
c1cc(-c2ccc(-c3ccc(-c4ccc(-c5cccc6nsnc56)[nH]4)c4nsnc34)[nH]2)c2nsnc2c1,TGI,786-0 renal,> 100 µM
same,TGI,A549 NSCLC,> 100 µM
same,TGI,ACHN renal,> 100 µM
same,TGI,BT-549 breast,> 100 µM
same,TGI,CCRF-CEM leukemia,> 100 µM
same,TGI,COLO 205 colon,> 100 µM
same,TGI,DU-145 prostate,> 100 µM
same,TGI,EKVX NSCLC,> 100 µM
same,TGI,HCC-2998 colon,> 100 µM
same,TGI,HCT-116 colon,> 100 µM
same,TGI,HCT-15 colon,> 100 µM
same,TGI,HL-60(TB) leukemia,30.1 µM
same,TGI,HOP-62 NSCLC,> 100 µM
same,TGI,HOP-92 NSCLC,> 100 µM
same,TGI,HS 578T breast,> 100 µM
same,TGI,HT29 colon,> 100 µM
same,TGI,IGROV1 ovarian,> 100 µM
same,TGI,K-562 leukemia,> 100 µM
same,TGI,KM12 colon,> 100 µM
same,TGI,LOX IMVI melanoma,> 100 µM
same,TGI,M14 melanoma,> 100 µM
same,TGI,MALME-3M melanoma,> 100 µM
same,TGI,MCF7 breast,> 100 µM
same,TGI,MDA-MB-231 breast,> 100 µM
same,TGI,MDA-MB-435,> 100 µM
same,TGI,MDA-N,> 100 µM
same,TGI,MOLT-4 leukemia,> 100 µM
same,TGI,NCI-H226 lung,> 100 µM
same,TGI,NCI-H23 lung,> 100 µM
same,TGI,NCI-H460 lung,> 100 µM
same,TGI,NCI-H522 lung,> 100 µM
same,TGI,NCI/ADR-RES ovarian,> 100 µM
same,TGI,OVCAR-3 ovarian,> 100 µM
same,TGI,OVCAR-4 ovarian,> 100 µM
same,TGI,OVCAR-5 ovarian,> 100 µM
same,TGI,OVCAR-8 ovarian,> 100 µM
same,TGI,PC-3 prostate,> 100 µM
same,TGI,RPMI-8226 leukemia,> 100 µM
same,TGI,SF-268 CNS,> 100 µM
same,TGI,SF-295 CNS,> 100 µM
same,TGI,SK-MEL-2 melanoma,> 100 µM
same,TGI,SK-MEL-28 melanoma,> 100 µM
same,TGI,SK-MEL-5 melanoma,> 100 µM
same,TGI,SK-OV-3 ovarian,> 100 µM
same,TGI,SN12C renal,> 100 µM
same,TGI,SNB-19 CNS,> 100 µM
same,TGI,SNB-75 CNS,> 100 µM
same,TGI,SW-620 colon,> 100 µM
same,TGI,T-47D breast,> 100 µM
same,TGI,TK-10 renal,> 100 µM
same,TGI,U251 CNS,> 100 µM
same,TGI,UACC-62 melanoma,> 100 µM
same,TGI,UO-31 renal,> 100 µM
CCN1C(=O)C(=C/C=C/c2ccc(OC)cc2)C(=O)N(CC)C1=S,TGI,786-0 renal,32.6 µM
same,TGI,A549 NSCLC,> 100 µM
same,TGI,ACHN renal,31.5 µM
same,TGI,BT-549 breast,90.1 µM
same,TGI,CAKI-1 renal,47.2 µM
same,TGI,CCRF-CEM leukemia,75.3 µM
same,TGI,COLO 205 colon,36 µM
same,TGI,DU-145 prostate,34 µM
same,TGI,EKVX NSCLC,78.9 µM
same,TGI,HCC-2998 colon,> 100 µM
same,TGI,HCT-116 colon,31.8 µM
same,TGI,HCT-15 colon,36.4 µM
same,TGI,HL-60(TB) leukemia,> 100 µM
same,TGI,HOP-62 NSCLC,36.1 µM
same,TGI,HOP-92 NSCLC,28.9 µM
same,TGI,HS 578T breast,> 100 µM
same,TGI,HT29 colon,58.9 µM
same,TGI,IGROV1 ovarian,35.7 µM
same,TGI,K-562 leukemia,> 100 µM
same,TGI,KM12 colon,40.5 µM
same,TGI,LOX IMVI melanoma,32.6 µM
same,TGI,M14 melanoma,52.5 µM
same,TGI,MALME-3M melanoma,28 µM
same,TGI,MCF7 breast,> 100 µM
same,TGI,MDA-MB-231 breast,37.2 µM
same,TGI,MDA-MB-435,43.6 µM
same,TGI,MDA-N,36.6 µM
same,TGI,MOLT-4 leukemia,> 100 µM
same,TGI,NCI-H226 lung,> 100 µM
same,TGI,NCI-H23 lung,> 100 µM
same,TGI,NCI-H460 lung,> 100 µM
same,TGI,NCI/ADR-RES ovarian,37.4 µM
same,TGI,OVCAR-3 ovarian,31.2 µM
same,TGI,OVCAR-4 ovarian,> 100 µM
same,TGI,OVCAR-5 ovarian,> 100 µM
same,TGI,OVCAR-8 ovarian,44.7 µM
same,TGI,PC-3 prostate,37.3 µM
same,TGI,RPMI-8226 leukemia,> 100 µM
same,TGI,RXF 393 renal,39.8 µM
same,TGI,SF-268 CNS,88.3 µM
same,TGI,SF-295 CNS,> 100 µM
same,TGI,SF-539 CNS,40.4 µM
same,TGI,SK-MEL-2 melanoma,> 100 µM
same,TGI,SK-MEL-5 melanoma,71.7 µM
same,TGI,SK-OV-3 ovarian,57.8 µM
same,TGI,SN12C renal,35.4 µM
same,TGI,SNB-19 CNS,> 100 µM
same,TGI,SW-620 colon,44 µM
same,TGI,T-47D breast,> 100 µM
same,TGI,TK-10 renal,31.8 µM
same,TGI,U251 CNS,36.6 µM
same,TGI,UACC-257 melanoma,30.3 µM
same,TGI,UACC-62 melanoma,31.7 µM
same,TGI,UO-31 renal,> 100 µM
